How the values were obtained:
U-87 MG cells = experiment: Flow cytometry; format: cell-based, human; settings: IC50 concentrations, 24 h
U-87 MG glioma cells = experiment: CCK-8 cell viability assay, U-87 MG; format: cell-based, human; settings: U-87 MG glioma / glioblastoma cells

Row | Compound | induction of apoptosis (Annexin V-FITC/PI, in words) (U-87 MG cells) | cytotoxic activity (in words) (U-87 MG glioma cells)
1 | COc1cccc2c1C(=O)c1c(O)c3c(c(O)c1C2=O)C[C@@](O)(C(=O)CO)C[C@@H]3O[C@H]1C[C@H](N)[C@H](O)[C@H](C)O1 [DOX, doxorubicin] | induce apoptosis | –
2 | COc1c(O)cc2c(c1OC)-c1ccc(O)cc1CC2 [compound 7, erianthridin] | – | no cytotoxic activity
3 | COc1c(O)cc2ccc3cc(O)ccc3c2c1OC [compound 6, nudol] | – | no cytotoxic activity
